# Several values for one entry are separate records, joined by “and”; a condition that tells them apart may be missing. Equal entries are not always repeated.
# Legend:
# [1] = Sub-acute toxicity by oral means with rats; conditions: rat, in vivo
# Method: Three batches of Sprague-Dawley rats each consisting of six males and six females were used. N-(2-piperidinoethyl)-4-tertiary-butyl-3'-chlorodiphenylamine hydrochloride was administered orally to the first two batches in doses of 200 mg/kg and 50 mg/kg respectively. The third batch received a zero dose (distilled water) and was thus used as a control.
# [2] = system: Uterus of Rat (agonist Seratonine); experiment: Test on isolated organ: contraction by serotonine; format: cell-based; conditions: agonist Seratonine 0.10 μ, read-out: Cl-50 of products, Seratonine
# Method: (§1) During this test, the products are added to the bath in an aqueous solution. The interaction of the various products is determined with different […]: Histamine, acetyl choline, serotonine and norepinephrine. The […] are employed in constant doses to produce contractions in the various biological reactants described below in table III.
# (§2) The micromolar concentration which inhibits 50% of the response produced by the constant concentration of each agonist (Cl-50) is determined for each derivative.
# [3] = system: Ileum of Guinea Pig (agonist Histamine); experiment: Test on isolated organ: contraction by histamine; format: cell-based; conditions: Cavia porcellus, agonist Histamine 0.05 μ, read-out: Cl-50 of products, Histamine
# Method: as §1, §2
# Acute toxicity in mice = conditions: mouse, in vivo
# Method: The lethal dose 50 (LD-50) of various derivatives administered orally and intra-peritoneally to mice weighing between 20 and 25 g was determined.
# [4] = system: "H2" histamine receptor sites; experiment: Gastric anti-secretory action, secretion stimulated by histamine (Ghosh and Schild method); format: in vivo, Sprague-Dawley rats; conditions: intravenous dose inhibiting by 50% the gastric secretion caused by histamine 2.5 μmoles/kg i.v., rats
# Method: (§3) Sprague-Dawley rats having a body weight of from 300 to 350 g are used for studying the antagonistic action of the "H2 " histamine receptor sites by the method described by Ghosh and Schild (1958). The gastric secretion is stimulated by intravenous injection of constant doses of histamine (2.5 μmoles/kg) or of carbachol (5 nmoles /kg). The gastric anti-secretory action is then determined by the intravenous dose (in μmole/kg) of derivative which inhibits by 50% the effect caused by the histamine or carbachol (DI-50).
# [5] = system: Ileum of Guinea Pig (agonist Acetyl Choline); experiment: Test on isolated organ: contraction by acetyl choline; format: cell-based; conditions: Cavia porcellus, agonist Acetyl Choline 0.05 μ, read-out: Cl-50 of products, Acetyl Choline
# Method: as §1, §2
# [6] = system: Deferent of Rat (agonist Norepinephrine); experiment: Test on isolated organ: contraction by norepinephrine; format: cell-based; conditions: agonist Norepinephrine 1.0 μ, read-out: Cl-50 of products, Norepinephrine
# Method: as §1, §2
# Acute toxicity in rats = conditions: rat, in vivo; Sprague-Dawley rats 150 to 180 g, oral; read-out: LD-50 by the oral route in rats
# Method: The acute toxicity was determined by oral means in Sprague-Dawley rats having a body weight of 150 to 180 g. The LD-50 of N-(2-piperidinoethyl)-tertiary-butyl-3'-chlorodiphenylamine hydrochloride by the oral route in rats is above 3500 mg/kg.
# [7] = system: gastric secretion stimulated by carbachol; experiment: Gastric anti-secretory action, secretion stimulated by carbachol (Ghosh and Schild method); format: in vivo, Sprague-Dawley rats; conditions: Rattus norvegicus; intravenous dose inhibiting by 50% the gastric secretion caused by carbachol 5 nmoles/kg i.v., rats; read-out: DI-50 with carbachol
# Method: as §3
# [8] = ip, mice 20-25 g, intra-peritoneal, read-out: LD-50 i.p.
# [9] = mice 20-25 g, oral, read-out: LD-50 Orally
structure (smiles),measurement,setting,value
"CC(C)(C)c1ccc(N(CCN2CCCCC2)c2cccc(Cl)c2)cc1 [Example 1, N-(2-piperidino-ethyl)-4-tertiary butyl-3'-chlorodiphenylamine]",mortality,[1]; 50 mg/kg,8.33%
same,mortality,[1]; 200 mg/kg,33%
same,IC50,[2],0.38 µM
same,IC50,[3],2.25 µM
same,LD50,"Acute toxicity in mice; ip, read-out: LD-50 i.p.",1000 mg/kg and 2450 µmol/kg
same,LD50,"Acute toxicity in mice; po, read-out: LD-50 Orally",> 3500 mg/kg and > 8500 µmol/kg
same,DI-50 with histamine,[4],1.0 µmol/kg
same,IC50,[5],25.5 µM
same,IC50,[6],24.5 µM
same,LD50,Acute toxicity in rats,> 3500 mg/kg
same,ED50,[7],> 20 µmol/kg
"CCN(CC)CCN(c1ccc(C(C)(C)C)cc1)c1cccc(Cl)c1 [Example 3, N(2-diethylaminoethyl)-4-tert.butyl 3'-chlorodiphenylamine]",IC50,[2],2.6 µM
same,IC50,[3],27.9 µM
same,LD50,Acute toxicity in mice; [8],395 mg/kg and 1000 µmol/kg
same,LD50,Acute toxicity in mice; [9],> 6000 mg/kg and > 15000 µmol/kg
same,DI-50 with histamine,[4],6.0 µmol/kg
same,IC50,[5],25.3 µM
same,IC50,[6],25 µM
same,ED50,[7],> 20 µmol/kg
"CC(C)(C)c1ccc(N(CCN2CCCC2)c2cccc(Cl)c2)cc1 [Example 4, N(2-pyrrolidinoethyl)-4-tert.butyl 3'-chlorodiphenylamine]",IC50,[2],0.05 µM
same,IC50,[3],19.8 µM
same,LD50,Acute toxicity in mice; [8],155 mg/kg and 390 µmol/kg
same,LD50,Acute toxicity in mice; [9],3000 mg/kg and 7620 µmol/kg
same,DI-50 with histamine,[4],2.2 µmol/kg
same,IC50,[5],25.4 µM
same,IC50,[6],25.4 µM
same,ED50,[7],20 µmol/kg

# Reference: US4216214A, “4-Tert. butyl-3'-chlorodiphenylamine derivatives, their preparation and their application as anti-histaminic drugs” (PRODESIN (Productos Esteve Internacional S.A.), priority 1977, dated 1980)
